Experimental data: the supplement of paper PMC10307832

How the values were obtained:
Assay in all cases: relative viability (nuclei count vs DMSO), 5 days (fraction); higher = more cells survive
[1] = compound: CN[C@@H]1C[C@H]2O[C@@](C)([C@@H]1OC)n1c3ccccc3c3c4c(c5c6ccccc6n2c5c31)C(=O)NC4 [Staurosporine] + Cc1nc(NC(=O)N2CCC[C@H]2C(N)=O)sc1-c1ccnc(C(C)(C)C(F)(F)F)c1 [Alpelisib] (partner 2 µM)
How it was run: (§1)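 Lung cancer cell lines in 1536-well plates were dosed by pin tool the day after seeding, either with one drug alone or with a fixed anchor-drug dose plus five library-drug doses (not always all listed) in √10 steps. After 5 days, cells were fixed and their nuclei stained in one step (final 0.05% Triton X-100, 1% formaldehyde, 1 ug/ml Hoechst), then counted on 4× images. Relative viability is the nuclei count in treated wells divided by that in vehicle wells. Values are medians of duplicate plates.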

[2] = compound: CN[C@@H]1C[C@H]2O[C@@](C)([C@@H]1OC)n1c3ccccc3c3c4c(c5c6ccccc6n2c5c31)C(=O)NC4 [Staurosporine] + O=C(CCCCCCC(=O)Nc1ccccc1)NO [Vorinostat] (partner 1 µM)
How it was run: as §1

[3] = compound: O=c1[nH]cc(F)c(=O)[nH]1 [5-Fluorouracil] + Cc1cc(Nc2cc(N3CCN(C)CC3)nc(Sc3ccc(NC(=O)C4CC4)cc3)n2)n[nH]1 [Tozasertib] (partner 0.1 µM)
How it was run: as §1

[4] = compound: O=c1[nH]cc(F)c(=O)[nH]1 [5-Fluorouracil] + Cc1nc(Nc2ncc(C(=O)Nc3c(C)cccc3Cl)s2)cc(N2CCN(CCO)CC2)n1 [Dasatinib] (partner 0.075 µM)
How it was run: as §1

Cell Line	relative viability ([1]; first compound 0.005 µM)	relative viability ([1]; first compound 0.01581 µM)	relative viability ([1]; first compound 0.05 µM)	relative viability ([1]; first compound 0.1581 µM)	relative viability ([1]; first compound 0.5 µM)	relative viability ([2]; first compound 0.005 µM)	relative viability ([2]; first compound 0.01581 µM)	relative viability ([2]; first compound 0.05 µM)	relative viability ([2]; first compound 0.1581 µM)	relative viability ([2]; first compound 0.5 µM)	relative viability ([3]; first compound 0.02 µM)	relative viability ([3]; first compound 0.2 µM)	relative viability ([3]; first compound 0.6325 µM)	relative viability ([3]; first compound 2 µM)	relative viability ([4]; first compound 0.02 µM)	relative viability ([4]; first compound 0.2 µM)	relative viability ([4]; first compound 0.6325 µM)	relative viability ([4]; first compound 2 µM)
LK-2	1.24	1.18	0.451	0.191	0.0868	0.19	0.0826	0.246	0.0977	0.0667	0.169	0.176	0.16	0.189	0.42	0.29	0.256	0.237
HCC-78	0.394	0.305	0.241	0.281	0.237	0.475	0.377	0.388	0.367	0.279	1.46	0.395	0.37	0.264	0.34	0.427	0.322	0.254
NCI-H3122	1.07	0.302	0.758	0.209	0.217	1.04		0.549		0.131	0.382	0.356	0.203	0.157	0.917	0.76	0.32	0.205
HOP-62	1.25	0.816	0.115	0.0862	0.138	0.168	0.0742	0.1	0.0731	0.0573	0.368	0.364	0.389	0.319	0.681	0.69	0.59	0.558
NCI-H727	0.27	0.291	0.212	0.234	0.148	1.36	0.831	0.453	0.36	0.322	0.659	0.646	0.691	0.571	0.38	0.395	0.378	0.375
NCI-H358	0.553	0.222	0.19	0.144	0.161		0.165	0.0628	0.0625	0.0709	0.132	0.104	0.0975	0.103	0.206	0.199	0.2	0.161
BEN	1.26		0.615	0.497	0.286	0.879	0.885	0.506	0.319	0.264	0.43	0.479	0.491	0.535	0.318	0.318	0.284	0.277
NCI-H460	0.367	0.198	0.024	0.0141	0.0076		0.179	0.0234	0.0138	0.0076	0.459	0.13	0.106	0.0388	0.584	0.488	0.159	0.0618
SK-MES-1	0.849	0.534	0.246	0.18	0.177	0.47	0.27	0.18	0.154	0.127	1.05	0.408	0.319	0.28	0.293	0.257	0.227	0.218
